Where a name gives a salt, the structure may show the parent alone.
| SMILES | melting point |
| --- | --- |
| Cc1cccc(C)c1C(C[N+](C)(C)C)OCCCc1c(F)cccc1F.[I-] (stereo not shown) | 190 °C |
| Cc1cccc(C)c1C(CN1CCCCC1)OCCCc1c(F)cccc1F (stereo not shown) (as salt: hydrochloride) [Example 14, 1-[2-[3-(2,6-difluorophenyl)propoxy]-2-(2,6-dimethylphenyl)ethyl]piperidine] | > 200 °C |
| Cc1cccc(C)c1C(CNCc1ccccc1)OCCCc1c(F)cccc1F (stereo not shown) (as salt: hydrochloride) [Example 23, N-[2-[3-(2,6-difluorophenyl)propoxy]-2-(2,6-dimethylphenyl)ethyl]-N-benzylamine] | 176 °C |
| Cc1cccc(C)c1C(CN(Cc1ccccc1)Cc1ccccc1)OCCCc1c(F)cccc1F (stereo not shown) (as salt: hydrochloride) [Example 24, N-[2-[3-(2,6-difluorophenyl)propoxy]-2-(2,6-dimethylphenyl)ethyl]-N,N-bis(benzyl)amine] | 108 °C |
| C=C(C)C1CC=C(CNCC(OCCCc2c(F)cccc2F)c2c(C)cccc2C)CC1 (stereo not shown) (as salt: hydrochloride) [Example 25, N-[2-[3-(2,6-difluorophenyl)propoxy]-2-(2,6-dimethylphenyl)ethyl]-N-(4-isopropenylcyclohexen-1-ylmethyl)amine] | 155 °C |
| Cc1cccc(C)c1C(CN(C)CC1CC1)OCCCc1c(F)cccc1F (stereo not shown) [Example 10, N-[2-[3-(2,6-difluorophenyl)propoxy]-2-(2,6-dimethylphenyl)ethyl]-N-cyclopropylmethyl-N-methylamine] | 78 °C |

Results, then the molecule that gave them:

| melting point | SMILES |
| --- | --- |
| 145 °C | Cc1cccc(C)c1C(CN1CCCCC1)NCCCc1c(F)cccc1F (stereo not shown) (as salt: hydrochloride) [Example 35, [3-(2,6-difluorophenyl)propyl]-[1-(2,6-dimethylphenyl)-2-piperidin-1-ylethyl]amine] |
| 197 to 199 °C | Cc1cccc(C)c1C(CN1CCCCC1)OCc1ccccc1 (stereo not shown) (as salt: hydrochloride) [Example 38, 1-[2-benzyloxy-2-(2,6-dimethylphenyl)ethyl]piperidine] |
| 152 to 154 °C | Cc1cccc(C)c1C(CN1CCCCC1)OCc1ccc(Br)cc1 (stereo not shown) (as salt: hydrochloride) [Example 39, 1-[2-(4-bromobenzyloxy)-2-(2,6-dimethylphenyl)ethyl]piperidine] |
| 134 to 135 °C | Cc1cccc(C)c1C(CN1CCCCC1)OCc1ccc(Cl)cc1 (stereo not shown) (as salt: hydrochloride) [Example 40, 1-[2-(4-chlorobenzyloxy)-2-(2,6-dimethylphenyl)ethyl]piperidine] |
| 225 to 227 °C | Cc1cccc(C)c1C(CN1CCCCC1)OCc1c(Cl)cccc1Cl (stereo not shown) (as salt: hydrochloride) [Example 41, 1-[2-(2,6-dichlorobenzyloxy)-2-(2,6-dimethylphenyl)ethyl]piperidine] |
| 183 to 185 °C | Cc1cccc(C)c1C(CN1CCCCC1)OCc1c(F)cccc1F (stereo not shown) (as salt: hydrochloride) [Example 42, 1-[2-(2,6-difluorobenzyloxy)-2-(2,6-dimethylphenyl)ethyl]piperidine] |
| 222 to 224 °C | Cc1cccc(C)c1C(CN1CCCCC1)OCc1ccc(Br)cc1Cl (stereo not shown) (as salt: hydrochloride) [Example 43, 1-[2-(2-chloro-4-bromobenzyloxy)-2-(2,6-dimethylphenyl)ethyl]piperidine] |
